# Assay results published in patent US8039504B2 (priority 2003, dated 2011).
# Tests used:
# camelpox = test: microbe, parasite or virus in culture; format: cell-based; details: read-out: Camelpox EC50
# [1] = tested on: monkeypox virus (Zaire (V79-1-005-scab)); test: microbe, parasite or virus in culture; format: cell-based; details: read-out: Monkeypox EC50
# wild type cowpox virus = test: microbe, parasite or virus in culture; format: cell-based; details: read-out: Cowpox EC50
# Vaccinia virus (NYCBH) = test: microbe, parasite or virus in culture; format: cell-based; details: Orthopoxvirus vaccinia, Vero, 72 h, read-out: Vaccinia EC50
structure (smiles),measurement,setting,value
"O=C(NN1C(=O)[C@@H]2C3C=CC(C4CC43)[C@@H]2C1=O)c1ccc(C(F)(F)F)cc1 (stereo partly shown) [Example 1, 4-Trifluoromethyl-N-(3,3a,4,4a,5,5a,6,6a,- octahydro-1,3-dioxo-4,6-ethenocycloprop[f]isoindol-2(1H)-yl)-benzamide]",EC50,camelpox,< 500 nM
same,solubility,"physchem; aqueous with cosolvent or surfactant or cyclodextrin, ST-246 Solubility",68.7 µg/mL
same,solubility,"physchem; organic solvent or mixture, ST-246 Solubility",60800 µg/mL
same,solubility,"physchem; organic solvent or mixture, Solubility in organic solvents",60000 µg/mL
same,solubility,"physchem; pH 6.8, aqueous buffer, ST-246 Solubility",7 µg/mL
same,solubility,"physchem; simulated gastric fluid, ST-246 Solubility",37.5 µg/mL
same,solubility,"physchem; water, ST-246 Solubility",26 µg/mL
same,EC50,[1],< 500 nM
same,EC50,wild type cowpox virus,< 500 nM
same,EC50,Vaccinia virus (NYCBH),< 500 nM
